Converted amounts (≈) assume the structure as drawn.
Legend:
in vitro [1] = settings: rat, microsomes
physchem = settings: buffer
in vitro [2] = settings: human, microsomes
in vivo [3] = settings: Wistar, rat, iv, 1 mg/kg
in vivo [4] = settings: Wistar, rat, 1 mg/kg
in vivo [5] = settings: Wistar, rat, po, 1 mg/kg

SMILES | remaining at 1 h (in vitro [1]) [%] | solubility (physchem) [µM] | remaining at 1 h (in vitro [2]) [%] | clearance (in vivo [3]) [mL/min/kg] | half-life (in vivo [4]) [min] | bioavailability (in vivo [5]) [%]
C[C@@H]1CC[C@H](C)N1C(=O)c1ccc([C@@H](C)NC(=O)C2(NC(=O)c3cc(F)cc(C(F)(F)F)c3)CC2)c(F)c1 | 45 | 42 (≈ 22.6 µg/mL) | 9 | – | – | –
CCN(NC(=O)C(F)(F)F)C(=O)N[C@H](C)c1ncc(-c2cc(Cl)cc(Cl)c2OCC(F)F)cc1F | – | – | – | 7 | 135 | > 44

Source: ChEMBL document CHEMBL1157727, “Novel small molecule bradykinin B1 receptor antagonists. Part 1: benzamides and semicarbazides” (Bioorg Med Chem Lett, 2010)
